Consider ten molecules from patent US4157392A, “Pharmacologically active substituted 1,2,4-triazines” (Diamond Shamrock Corporation, priority 1978, dated 1979).

Like-named read-outs stand apart in the source and are kept apart here.

Assay [1] deals with carrageenin-induced edema in the hind paw of a rat. In words: Carrageenin Assay (carrageenin-induced edema, hind paw). The format is in vivo, rat (male, Long Evans strain). The following applies: 1 h before carrageenin, edema at 3 h, compared to phenylbutazone control values; for inhibition in vivo at 200 mg/kg: 200 mg/kg oral. On the procedure:
The procedure employed is a modification of the method of Winter et al, Proc. Soc. Exptl. Biol. Med. 111:544 (1962). The device used for measurement of the paw volume is an adaptation of the water displacement procedure described by Adamkiewicz et al, Can. J. Biochem. Physiol. 33:332 (1955). Test compounds were administered orally, one hour prior to the intraplantar injection of 0.05 ml. of sterile 1.0 percent solution of carrageenin into the left hind paw of male rats (Long Evans strain) weighing between about 130-200 grams. At peak swelling time (3 hours) the volume of edema was calculated by differential paw volumes.
Table I sets forth the results obtained (indicated as percent reduction of edema compared to phenylbutazone control values) at the indicated dosages for each of the identified compounds.
(In the carrageenan paw model, swelling and tenderness develop within hours.)

Assay [2] has as its system Spontaneously hypertensive rats. Put plainly: SHR Assay (anti-hypertensive). Format: in vivo, rat (spontaneously hypertensive). The following applies: dose 100, oral. On the procedure: Spontaneously hypertensive rats, 12 to 16 weeks of age, were used in this assay. Systolic blood pressures were determined by the tail cuff method, utilizing capacitance transducers for the detection of pressure, an aneroid manometer for measuring pressure, and an oscilloscope for visualizing the disappearance and/or appearance of the pressure pulse. Heart rate was measured by a biotachometer. Groups of five rats having systolic blood pressures of 170 mmHg or greater were chosen and the test compounds administered at the doses indicated below (oral) as a solution or suspension in 0.25% methylcellulose (MC) at a volume of 5 ml/kg. One group served as the control and received the vehicle. Twenty-four hours after dosing, systolic blood pressure and heart rate were recorded. A second dose of compound was administered and blood pressure and heart rate determined at 4 and 24 hours after the second dose.

The test system of assay [3] is phenylquinone writhing in mice. In words: Phenylquinone Writhing Assay (analgesia). Format: in vivo, mouse (Carworth CF1 male mice). The following applies: for Phenylquinone Writhing Assay (% Control), percent analgesia / responders at 100 mg/kg: 100 mg/kg oral; for responders at 12.5 mg/kg: 12.5 mg/kg oral; for responders at 25 mg/kg: 25 mg/kg oral; for responders at 50 mg/kg: 50 mg/kg oral; for responders at 10 mg/kg: 10 mg/kg oral. A digest of the protocol: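 Male CF1 mice (ten per group) dosed orally in 0.25% methylcellulose, then challenged i.p. with 0.02% phenylquinone at 15, 30, 60 or 120 min post-dose. Mice showing no writhing over 10 min count as protected; percent analgesia = number protected ×10.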

Another assay deals with yeast induced fever. In words: Antipyretic Assay (yeast induced fever). Format: in vivo. As to conditions: for temps. at 191/2 hrs. / temps. at 18 hrs. (Test Compounds Administered) / temps. at 0 hr.: 100 mg/kg; for temps. at 191/2 hrs.: 1 1/2 hrs. after administration; for temps. at 18 hrs. (Test Compounds Administered): at time of administration; for temps. at 0 hr.: before yeast fever and compound. On the procedure: As indicated previously, certain of the compounds of the invention also display excellent antipyretic activity. […] Antipyretic activity was measured utilizing the conventional yeast induced fever assay procedure (15% yeast solution injected at two sites).

The test system of assay [4] is adjuvant-induced arthritis, hind paw of the rat. In words: Adjuvant-Arthritis Assay. The format is in vivo.
Assay [5] concerns central nervous system activity in mice. Put plainly: Neuropharmacological Profile. The format is in vivo, mouse (white male Carworth Farm Strain CF-1). The method, then: The central nervous system activity of certain of the preferred compounds in accordance with the present invention were determined using the following neuropharmacological profile assay procedures.
White male mice of the Carworth Farm Strain (CF-1) weighing 18-22 grams were used in these determinations. […] Intraperitoneal injections were administered in logarithmic progression and sequentially. The dose levels employed routinely are 10, 30, 100, and 300 mg/kg, using four male mice at each dose level. Since this test was conducted in a sequential manner, the first dose administered was at 300 mg/kg. The mice were injected at this dose level and observed for gross changes produced by the drug, such as behavioral, neurological, autonomic, and toxic effects.
The animals were observed continuously for one hour and if no signs of pharmacological or toxicological activity were present at the end of the first hour, they were intermittently checked for activity every fifteen minutes thereafter for two consecutive hours. […] Subsequent dose levels below 300 mg/kg were not administered in this case. Alternatively, if demonstrable pharmacological changes occurred within the first three hours after administration of the drug at 300 mg/kg, the subsequent doses were administered and the animals observed for changes in overt behavior. The observation period begins immediately following the injection and the animals are then continuously observed for three hours and intermittently checked thereafter for forty-eight hours. The animals were observed and signs and symptoms of pharmacological activity were recorded continuously until no further symptoms developed and until the symptoms that had appeared were no longer present. […] It was very important that the animals were free to move about for evaluation of spacial orientation, alertness, and spontaneous motor activity. The animals were systematically observed and manipulated to measure the onset, peak effect, duration and character of drug action.
The major characteristics observed relative to central nervous system activity for the compounds indicated are summarized in the following Table IV.

Setting [6] is: Rattus norvegicus, read-out: % Reduction of Edema.
Setting [7] is: Mus musculus, po, 0.25 h, 15 Min., read-out: Phenylquinone Writhing Assay (% Control), percent analgesia.
[8] abbreviates: Mus musculus, po, 0.5 h, 30 Min., read-out: Phenylquinone Writhing Assay (% Control), percent analgesia.
The mark [9] stands for this setting: Mus musculus, po, 1 h, 60 Min, read-out: Phenylquinone Writhing Assay (% Control), percent analgesia.
Where [10] appears, read: 300,100,30 mg/kg intraperitoneal.

As to “3-Methylhydrazino-5-Phenyl-1,2,4-Triazine [Example 3A]”, in assay [1] (100 mg/kg oral), the “% Reduction of Edema” value amounted to 76%. For the same molecule, the “Mean Drop (systolic blood pressure)” value in assay [2] (4 hr.) came out at 0 mm/Hg; in assay [2] (24 hr.), 49 mm/Hg; in assay [2] (second 4 hr. column (after second dose)), 56 mm/Hg; in assay [2] (second 24 hr column (after second dose)), 92 mm/Hg. The “Phenylquinone Writhing Assay (% Control), percent analgesia” value in assay [3] (15 Min.) is listed as 60%; in assay [3] (30 Min.) it was 30%; in assay [3] (60 Min), 30%.

`CC(=O)Oc1ccccc1C(=O)O` [Aspirin, reference compound]: in the assay on yeast induced fever, the “temps. at 191/2 hrs.” value worked out at 37.8, the “temps. at 18 hrs. (Test Compounds Administered)” value is 38.8 and the “temps. at 0 hr.” value came out at 38.0.

Turning to `COc1nncc(-c2ccccc2)n1` [Example 2, 3-methoxy-5-phenyl-1,2,4-triazine], the “temps. at 191/2 hrs.” value in the assay on yeast induced fever is 35.3. Further, the “temps. at 18 hrs. (Test Compounds Administered)” value with yeast induced fever is listed as 39.0. Besides, the “temps. at 0 hr.” value in the assay on yeast induced fever came to 38.1. Also, the antipyretic activity entry with yeast induced fever (compared to aspirin) is given as “comparable in activity to aspirin”. Moreover, the inhibition in vivo at 200 mg/kg in assay [1] (setting [6]) was determined as 86%. For the same molecule, the “Adjuvant-Arthritis Assay (% Reduction)” value in assay [4] (40 mg/kg oral once daily, Day 3, developing disease) was determined as 39%; in assay [4] (40 mg/kg oral once daily, Day 10, developing disease) it was 23%; in assay [4] (40 mg/kg oral once daily, Day 17, developing disease), 0%; in assay [4] (80 mg/kg oral once daily, Day 3, developing disease) it was 40%; in assay [4] (80 mg/kg oral once daily, Day 10, developing disease), 18%; in assay [4] (80 mg/kg oral once daily, Day 17, developing disease), 0%. Besides, the “Adjuvant-Arthritis Assay (% Reduction)” value in assay [4] (120 mg/kg oral once daily, Day 3, developing disease) turned out to be 30%; in assay [4] (120 mg/kg oral once daily, Day 10, developing disease), 13%; in assay [4] (120 mg/kg oral once daily, Day 17, developing disease), 21%. The responders at 12.5 mg/kg worked out at 10% in assay [3] (setting [7]), 30% in assay [3] (setting [8]) and 30% in assay [3] (setting [9]). Also, the responders at 25 mg/kg was 40% in assay [3] (setting [7]), 60% in assay [3] (setting [8]) and 50% in assay [3] (setting [9]). Also, the responders at 50 mg/kg in assay [3] (setting [7]) came to 90%; in assay [3] (setting [8]), 80%; in assay [3] (setting [9]), 70%.

On to `C=CCOc1nnc(C)c(C)n1` [Example 11, 3-allyloxy-5,6-dimethyl-1,2,4-triazine], for which the “CNS Activity” value in assay [5] (300,100 mg/kg intraperitoneal) is reported as “Hypnotic”. Moreover, in assay [1] (setting [6]), the inhibition in vivo at 200 mg/kg is 63%. Further, the responders at 100 mg/kg in assay [3] (setting [8]) was determined as 30%.

Take `CSc1nncc(-c2cccc(C(F)(F)F)c2)n1` [Example 19, 3-methylthio-5-(3'-trifluoromethylphenyl)-1,2,4-triazine]: the “CNS Activity” value in assay [5] (300,100,30,10,3 mg/kg intraperitoneal) is listed as “Sedative”. The inhibition in vivo at 200 mg/kg in assay [1] (setting [6]) amounted to 51%. Further, the responders at 30 mg/kg in assay [3] (Mus musculus, po, 0.5 h, 30 mg/kg oral, 30 Min., read-out: Phenylquinone Writhing Assay (% Control), percent analgesia) worked out at 20%.

Regarding `Cc1nnc(NN)nc1C` [Example 25, 3-hydrazino-5,6-dimethyl-1,2,4-triazine], in assay [5] (300,100,30,10 mg/kg intraperitoneal), the “CNS Activity” value was “Antidepressant”. In addition, in assay [1] (Rattus norvegicus, 40 mg/kg oral, read-out: % Reduction of Edema), the inhibition in vivo at 40 mg/kg was 46%. For the same molecule, the responders at 10 mg/kg in assay [3] (setting [7]) was 20%. In assay [3] (setting [8]), the responders at 10 mg/kg turned out to be 10%, the responders at 12.5 mg/kg stood at 20% and the responders at 25 mg/kg was found to be 90%.

On to `COc1nnc(-c2ccccc2)c(-c2ccccc2)n1` [Example 48, 3-methoxy-5,6-diphenyl-1,2,4-triazine], for which the “CNS Activity” value in assay [5] (setting [10]) is listed as “Muscle Relaxant”. In addition, the inhibition in vivo at 200 mg/kg in assay [1] (setting [6]) came out at 17%.

Take `CCCCOc1nccnn1` [Example 65, 3-n-butoxy-1,2,4-triazine]: the “CNS Activity” value in assay [5] (setting [10]) is recorded as “Antidepressant”. In addition, the responders at 50 mg/kg in assay [3] (setting [8]) came out at 10%.

Consider `CN(CCO)c1nncc(-c2ccccc2)n1` [Example 73], for which the “CNS Activity” value in assay [5] (300,100 mg/kg intraperitoneal) is on record as “Hypnotic”. Moreover, the responders at 100 mg/kg in assay [3] (setting [7]) is 10%.

For `CCC(=O)NNc1nncc(-c2ccc(Cl)cc2)n1` [Example 108, 3-propionylhydrazino-5-(4'-chlorophenyl)-1,2,4-triazine], the inhibition in vivo at 100 mg/kg in assay [1] (Rattus norvegicus, 100 mg/kg oral, read-out: % Reduction of Edema) came to 40%. Also, the results for the responders at 25 mg/kg in assay [3] (setting [7]), in assay [3] (setting [8]) and in assay [3] (setting [9]) were 30%, 50% and 50%, respectively.
